The record followed here is patent publication US7169932B2 (priority 2001, dated 2007).

In one data set the target is T1, HIV-1 protease (Q7S) (Human immunodeficiency virus type 1 group M subtype B, UniProt P04585, Q495S).
T1 construct: made in house
As to the kind of experiment: HIV-1 Protease RET Assay. The data set is classed as biochemical. The method, boiled down: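 Ki values came from a RET assay on refolded Q7S protease (2 nM active dimer) cleaving RE(EDANS)SQNYPIVQK(DABCYL)R at 5 μM, read at ex 340/em 490 nm. Reactions ran 12 min at 37 C in 0.1M sodium acetate pH 4.8, 1M NaCl, 5 mM DTT, 10% DMSO; curves were fit with the Morrison tight-binding equation.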

For another data set, the system named is HIV-1. As to the kind of experiment: Cytopathic Effect (CPE) Inhibition Assay (XTT dye reduction). It counts as cell-based. The method, boiled down:
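CEM-SS or MT-2 cells infected with HIV-1 RF or NL4–3 (moi 0.025–0.819), 2×10^4 cells/well, incubated six days with half-log compound dilutions. Viability read by XTT formazan at 450 nm; EC50 is the concentration restoring 50% of uninfected-control formazan, CC50 from uninfected treated cells, therapeutic index CC50/EC50.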
In general terms: Cytopathic effects are the visible damage that an infection or toxin causes in cultured cells.

Setting [1] is: Ave. Ki (nM), RET assay, Q7S enzyme, pH 4.8, 37 C.
Setting [2] is: Human immunodeficiency virus 1, 144 h, read-out: Ave CPE EC50 (mM).
Where [3] appears, read: Ki, table of drawn compounds, unit inferred.

Structures are written as SMILES. Like-named read-outs stand apart in the source and are kept apart here. Where only a bound is given, the exact number is not on record here.

One may read the Ki as the dissociation constant of the complex between target and ligand, obtained from inhibition or displacement. A low value points to a stronger hold on the target. One may read the EC50 as the concentration needed to bring the measured effect to its halfway point. In general, melting point refers to the temperature, or range, at which the solid turns liquid. `Cc1ccccc1CNC(=O)[C@H]1N(C(=O)[C@@H](O)[C@H](Cc2ccccc2)NC(=O)c2cccs2)CSC1(C)C` [Example B5, (R)-3-{(2S,3S)-2-Hydroxy-4-phenyl-3-[(1-thiophen-2-yl-methanoyl)-amino]-butanoyl}-5,5-dimethyl-thiazolidine-4-carboxylic acid 2-methyl-benzylamide] gave a melting point of 98 to 101 °C. On HIV-1 protease (Q7S) (setting [1]), this molecule returned a Ki of 1.6 nM. Besides, in the data set with HIV-1 (setting [2]), the EC50 is 508 nM.

The molecule `Cc1ccccc1CNC(=O)[C@H]1N(C(=O)[C@@H](O)[C@H](Cc2ccccc2)NC(=O)c2ccsc2)CSC1(C)C` [Example B6, (R)-3-{(2S,3S)-2-Hydroxy-4-phenyl-3-[(1-thiophen-3-yl-methanoyl)-amino]-butanoyl}-5,5-dimethyl-thiazolidine-4-carboxylic acid 2-methyl-benzylamide] showed a melting point of 98 to 100 °C. In addition, on HIV-1 protease (Q7S) (setting [1]), the inhibitory constant (Ki) came to 1.6 nM. The EC50 in the data set with HIV-1 (setting [2]) amounted to 589 nM.

Molecule `Cc1c(O)cccc1C(=O)NC(Cc1ccccc1)C(O)C(=O)N1CSC(C)(C)C1C(=O)NCc1cccc(C(F)(F)F)c1` (centres unmarked) [Example A4, 3-(2-Hydroxy-3-{[1-(3-hydroxy-2-methyl-phenyl)-methanoyl]-amino}-4-phenyl-butanoyl)-5,5-dimethyl-thiazolidine-4-carboxylic acid 3-trifluoromethyl-benzylamide] returned a melting point of 108 to 110 °C. In addition, on HIV-1 protease (Q7S) (setting [1]), the Ki stood at 4.1 nM. For the same molecule, the EC50 in the data set with HIV-1 (setting [2]) was 591 nM.

Turning to `Cc1c(O)cccc1C(=O)N[C@@H](Cc1ccccc1)[C@H](O)C(=O)N1CSC(C)(C)[C@H]1C(=O)NCc1ccc(N)cc1` [Example A16, (R)-3-((2S,3S)-2-Hydroxy-3-{[1-(3-hydroxy-2-methyl-phenyl)-methanoyl]-amino}-4-phenyl-butanoyl)-5,5-dimethyl-thiazolidine-4-carboxylic acid 4-amino-benzylamide], the melting point fell in the range of 107 to 109 °C. On HIV-1 protease (Q7S) (setting [1]), this molecule registered a Ki of 0.63 nM. Also, in the data set on HIV-1 (setting [2]), the EC50 amounted to 134 nM.

The molecule `CC/C=C\CNC(=O)[C@H]1N(C(=O)[C@@H](O)[C@H](Cc2ccccc2)NC(=O)c2cccc(O)c2C)CSC1(C)C` [Example A37, (R)-3-((2S,3S)-2-Hydroxy-3-{[1-(3-hydroxy-2-methyl-phenyl)-methanoyl]-amino}-4-phenyl-butanoyl)-5,5-dimethyl-thiazolidine-4-carboxylic acid (Z)-pent-2-enylamide] returned a melting point of 112 to 113 °C. Also, the Ki on HIV-1 protease (Q7S) (setting [1]) came to 0.13 nM. Further, the EC50 in the data set with HIV-1 (setting [2]) is 161 nM.

Consider `Cc1ccccc1CNC(=O)[C@H]1N(C(=O)[C@@H](O)[C@H](Cc2ccccc2)NC(=O)c2ccno2)CSC1(C)C` [Example B2, Isoxazole-5-carboxylic acid {(1S,2S)-1-benzyl-3-[(R)-5,5-dimethyl-4-(2-methyl-benzylcarbamoyl)-thiazolidin-3-yl]-2-hydroxy-3-oxo-propyl}-amide], for which the melting point lay in the range of 82 to 84 °C. On HIV-1 protease (Q7S) (setting [1]), this molecule gave a Ki of 0.78 nM. Moreover, in the data set on HIV-1 (setting [2]), the EC50 turned out to be 369 nM.

In the case of `Cc1c(O)cccc1C(=O)N[C@@H](Cc1ccccc1)[C@H](O)C(=O)N1CSC(C)(C)[C@H]1C(=O)N[C@H](C)c1ccccc1` [Example A21, (R)-3-((2S,3S)-2-Hydroxy-3-{[1-(3-hydroxy-2-methyl-phenyl)-methanoyl]-amino}-4-phenyl-butanoyl)-5,5-dimethyl-thiazolidine-4-carboxylic acid ((R)-1-phenyl-ethyl)-amide], the melting point was 114 to 115 °C. The affinity on HIV-1 protease (Q7S) (setting [1]) corresponds to a Ki of 1.9 nM. Also, the EC50 with HIV-1 (setting [2]) was determined as 717 nM.

For `C=CCNC(=O)[C@H]1N(C(=O)[C@@H](O)[C@H](Cc2ccccc2)NC(=O)c2cccc(O)c2C)CSC1(C)C`, the melting point was 173 to 175 °C.

As to `CCCOc1cccc(CNC(=O)[C@H]2N(C(=O)[C@@H](O)[C@H](Cc3ccccc3)NC(=O)c3cccc(O)c3C)CSC2(C)C)c1` [Example A43, (R)-3-((2S,3S)-2-Hydroxy-3-{[1-(3-hydroxy-2-methyl-phenyl)-methanoyl]-amino}-4-phenyl-butanoyl)-5,5-dimethyl-thiazolidine-4-carboxylic acid 3-propoxy-benzylamide], the inhibitory constant (Ki) on HIV-1 protease (Q7S) (setting [1]) amounted to 0.35 nM. Further, in the data set on HIV-1 (setting [2]), the concentration for a half-maximal effect (EC50) came to 561 nM.

Turning to `COc1cccc(CNC(=O)[C@H]2N(C(=O)[C@@H](O)[C@H](Cc3ccccc3)NC(=O)c3ccc(C)c(O)c3C)CSC2(C)C)c1`, affinity at HIV-1 protease (Q7S) (setting [3]) was put at a Ki of 3.7 nM. For the same molecule, in the data set with HIV-1 (Human immunodeficiency virus 1), the EC50 turned out to be 1330 nM.

Molecule `Cc1c(O)cccc1C(=O)N[C@@H](Cc1ccccc1)[C@H](O)C(=O)N1CSC(C)(C)[C@H]1C(=O)NCc1ccc(C(F)(F)F)cc1` [Example A9, (R)-3-((2S,3S)-2-Hydroxy-3-{[1-(3-hydroxy-2-methyl-phenyl)-methanoyl]-amino}-4-phenyl-butanoyl)-5,5-dimethyl-thiazolidine-4-carboxylic acid 4-trifluoromethyl-benzylamide] displayed a Ki at HIV-1 protease (Q7S) (setting [1]) of 4 nM. The EC50 in the data set on HIV-1 (setting [2]) worked out at 565 nM.

In turn, `CCC/C=C/CNC(=O)[C@H]1N(C(=O)[C@@H](O)[C@H](Cc2ccccc2)NC(=O)c2cccc(O)c2C)CSC1(C)C` registered a Ki on HIV-1 protease (Q7S) (setting [3]) of 2.6 nM. Besides, it took 1420 nM to reach a half-maximal effect in the data set on HIV-1 (Human immunodeficiency virus 1) (EC50).

The molecule `C#CCNC(=O)[C@H]1N(C(=O)[C@@H](O)[C@H](Cc2ccccc2)NC(=O)c2ccc(C)c(O)c2C)CSC1(C)C` [Example B21, 3-(2-Hydroxy-3-{[1-(3-hydroxy-2,4-dimethyl-phenyl)-methyanoyl]-amino}-4-phenyl-butznoyl)-5,5-dimethyl-thiazolidine-4-carboxylic acid prop-2-ynylamide] displayed a Ki at HIV-1 protease (Q7S) (setting [1]) of 4.6 nM. The concentration giving a half-maximal response (EC50) in the data set on HIV-1 (setting [2]) was 598 nM.

Molecule `Cc1ccccc1CNC(=O)[C@H]1N(C(=O)[C@@H](O)[C@H](Cc2ccccc2)NC(=O)c2cnc(C(F)(F)F)[nH]c2=O)CSC1(C)C` gave a Ki at HIV-1 protease (Q7S) (setting [3]) of 1700 nM. Also, in the data set on HIV-1 (Human immunodeficiency virus 1), the EC50 is ≥ 10000 nM.

Molecule `Cc1ccccc1CNC(=O)[C@H]1N(C(=O)[C@@H](O)[C@H](Cc2ccccc2)NC(=O)c2cc(Cl)on2)CSC1(C)C` [Example B4, 5-Chloro-isoxazole-3-carboxylic acid {(1S,2S)-1-benzyl-3-[(R)-5,5-dimethyl-4-(2-methyl-benzylcarbamoyl)-thiazolidin-3-yl]-2-hydroxy-3-oxo-propyl}-amide] displayed a Ki on HIV-1 protease (Q7S) (setting [1]) of 1.7 nM. The EC50 in the data set on HIV-1 (setting [2]) is 551 nM.

At HIV-1 protease (Q7S) (setting [1]), `Cc1ccccc1CN(CCO)C(=O)[C@H]1N(C(=O)[C@@H](O)[C@H](Cc2ccccc2)NC(=O)c2cccc(O)c2C)CSC1(C)C` [Example A50, (R)-3-((2S,3S)-2-Hydroxy-3-{[1-(3-hydroxy-2-methyl-phenyl)-methanoyl]-amino}-4-phenyl-butanoyl)-5,5-dimethyl-thiazolidine-4-carboxylic acid (2-hydroxy-ethyl)-(2-methyl-benzyl)-amide] registered a Ki of 0.26 nM. For the same molecule, the EC50 in the data set on HIV-1 (setting [2]) was determined as 224 nM.

On to `C#CCNC(=O)[C@H]1N(C(=O)[C@@H](O)[C@H](Cc2ccccc2)NC(=O)[C@@H]2CCCO2)CSC1(C)C`, for which the Ki on HIV-1 protease (Q7S) (setting [3]) is 16.8 nM. In the data set with HIV-1 (Human immunodeficiency virus 1), this molecule showed an EC50 of 3740 nM.

With `Cc1ccccc1CNC(=O)C1N(C(=O)C(O)C(Cc2ccccc2)NC(=O)C2=NNC(=O)CC2)CSC1(C)C` (centres unmarked) [Example B18, 6-Oxo-1,4,5,6-tetrahydro-pyridazine-3-carboxylic acid {1-benzyl-3-[5,5-dimethyl-4-(2-methyl-benzylcarbamoyl)-thiazolidin-3-yl]-2-hydroxy-3-oxo-propyl}-amide], at HIV-1 protease (Q7S) (setting [1]), the affinity corresponds to a Ki of 0.29 nM. The EC50 in the data set with HIV-1 (setting [2]) came out at 457 nM.

As for `Cc1c(O)cccc1C(=O)N[C@@H](Cc1ccccc1)[C@H](O)C(=O)N1CSC(C)(C)[C@H]1C(=O)c1ccccc1`, affinity at HIV-1 protease (Q7S) (setting [3]) was put at a Ki of 2.5 nM. Besides, in the data set with HIV-1 (Human immunodeficiency virus 1), it took 1220 nM to reach a half-maximal effect (EC50).

`Cc1ccccc1CNC(=O)[C@H]1N(C(=O)[C@@H](O)[C@H](Cc2ccccc2)NC(=O)c2cc(C(C)(C)C)on2)CSC1(C)C`: on HIV-1 protease (Q7S) (setting [3]), the inhibitory constant (Ki) worked out at 214 nM. Also, the EC50 in the data set on HIV-1 (Human immunodeficiency virus 1) is ≥ 10000 nM.

For the molecule `Cc1ccccc1CNC(=O)[C@H]1N(C(=O)[C@@H](O)[C@H](Cc2ccccc2)NC(=O)c2cccc(F)c2C)CSC1(C)C` [Example B36, (R)-3-((2S,3S)-3-{[1-(3-Fluoro-2-methyl-phenyl)-methanoyl]-amino}-2-hydroxy-4-phenyl-butanoyl)-5,5-dimethyl-thiazolidine-4-carboxylic acid 2-methyl-benzylamide], the Ki at HIV-1 protease (Q7S) (setting [1]) is < 0.1 nM. Moreover, the EC50 in the data set on HIV-1 (setting [2]) is 615 nM.

Molecule `COc1ccc(CNC(=O)[C@H]2N(C(=O)[C@@H](O)[C@H](Cc3ccccc3)NC(=O)c3cccc(O)c3C)CSC2(C)C)cc1` [Example A6, (R)-3-((2S,3S)-2-Hydroxy-3-{[1-(3-hydroxy-2-methyl-phenyl)-methanoyl]-amino}-4-phenyl-butanoyl)-5,5-dimethyl-thiazolidine-4-carboxylic acid 4-methoxy-benzylamide] displayed a Ki on HIV-1 protease (Q7S) (setting [1]) of 0.22 nM. Further, the concentration for a half-maximal effect (EC50) in the data set with HIV-1 (setting [2]) was 36 nM.

On HIV-1 protease (Q7S) (setting [3]), `Cc1ccccc1CNC(=O)[C@H]1N(C(=O)[C@@H](O)[C@H](Cc2ccccc2)NC(=O)N2CCSC2)CSC1(C)C` showed a Ki of 14 nM. The molecule also had an EC50 in the data set with HIV-1 (Human immunodeficiency virus 1) of 1510 nM.

In the case of `Cc1ccccc1CNC(=O)[C@H]1N(C(=O)[C@@H](O)[C@H](Cc2ccccc2)NC(=O)c2ccccc2Cl)CSC1(C)C`, affinity on HIV-1 protease (Q7S) (setting [3]) was put at a Ki of 0.2 nM. A half-maximal effect in the data set on HIV-1 (Human immunodeficiency virus 1) (EC50) was put at 585 nM.

Molecule `Cc1noc(C)c1C(=O)NC(Cc1ccccc1)C(O)C(=O)N1CSC(C)(C)C1C(=O)NCc1c(F)cccc1F` (centres unmarked) [Example B25, 3,5-Dimethyl-isoxazole-4-carboxylic acid {1-benzyl-3-[4-(2,6-difluoro-benzylcarbamyl)-5,5-dimethyl-thiazolidin-3-yl]-2-hydroxy-3-oxo-propyl}-amide] displayed a Ki on HIV-1 protease (Q7S) (setting [1]) of 2.7 nM. Besides, the EC50 in the data set on HIV-1 (setting [2]) is 1790 nM.
